The record followed here is PubChem BioAssay (NCI).

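The compound was tested at five concentrations on cells cultured in 96-well plates, with a 48-hour exposure period. Abbreviation: GI50, concentration required for 50% inhibition of growth. At the TGI there is no net growth.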

Some test systems named below: KM20L2 colon; XF 498 CNS; SNB-78 CNS; P388/ADR leukemia; DLD-1 colon; SN12K1 renal; P388 leukemia; DMS 273 small cell lung; RXF-631 renal.
Holding throughout (assay): NCI tumour cell line growth inhibition, 48 h

In the case of `CC(C)NC(=O)OCc1c(CO)c2c(n1C)-c1ccccc1CC2`, the TGI in the assay on KM20L2 colon is over 84.5 µM; in the assay on XF 498 CNS, 31.3 µM; in the assay on SNB-78 CNS, 86.7 µM; in the assay on P388/ADR leukemia, 53.9 µM; in the assay on DLD-1 colon it was 46.4 µM; in the assay with SN12K1 renal, 35.1 µM. For the same compound, the TGI in the assay on P388 leukemia came out at 32.7 µM; in the assay with DMS 273 small cell lung, 62.4 µM.

In the case of `COC(=O)c1ccc(N=NN(C)COc2ccc(Br)cc2)cc1`, the TGI with KM20L2 colon, in the assay with XF 498 CNS, in the assay on SNB-78 CNS, in the assay on P388/ADR leukemia, in the assay with DLD-1 colon and with SN12K1 renal was over 100 µM in each case. Further, the TGI with P388 leukemia and with DMS 273 small cell lung was over 100 µM in each case.

On to `CC(C)N=C(N)NC#N`, for which the TGI with KM20L2 colon, in the assay on XF 498 CNS, in the assay on SNB-78 CNS and with DLD-1 colon was over 100 µM throughout.

For the compound `CC1=C(O)C(=O)C2C(=O)C1C1Cc3ccccc3C21` (stereo not given), the TGI in the assay with XF 498 CNS, in the assay with SNB-78 CNS, in the assay on RXF-631 renal, in the assay on DLD-1 colon and in the assay on DMS 273 small cell lung was over 100 µM each time.

`COc1ccccc1-c1cc(=O)c2cc3c(cc2[nH]1)OCO3`: the GI50 in the assay with KM20L2 colon was 18.7 µM. Also, the TGI with KM20L2 colon was 37.5 µM; with XF 498 CNS, 75.5 µM; with DLD-1 colon, over 100 µM; in the assay with DMS 273 small cell lung, over 100 µM.

As to `COc1ccc(/C(Cl)=C(\C=N/O)c2ccc(OC)c(OC)c2)cc1OC`, the TGI in the assay on KM20L2 colon, in the assay on XF 498 CNS, with SNB-78 CNS, in the assay with DLD-1 colon and in the assay on DMS 273 small cell lung was over 100 µM each time.

For `Cc1cc(/C=C/c2cc[n+](C)c3ccccc23)c(O)c2ncccc12`, the TGI in the assay on KM20L2 colon amounted to 20 µM; in the assay with SNB-78 CNS, 27.1 µM; in the assay with DLD-1 colon it was 22.5 µM; in the assay on DMS 273 small cell lung it was 10.4 µM.

Take `Cc1c(N2CCN(C)CC2)nc2ccc(Cl)cc2c1-c1ccccc1`: the TGI came out at 31.2 µM in the assay on KM20L2 colon, 39.8 µM with SNB-78 CNS and 32.1 µM with DMS 273 small cell lung.

With `COC1C(O)C(n2ncc3c(SC)nc(SC)nc32)OC1C(O)CO` (stereo not given), the TGI in the assay on KM20L2 colon is over 100 µM; with XF 498 CNS, over 100 µM; in the assay on SNB-78 CNS it was over 100 µM; with P388/ADR leukemia it was over 100 µM; in the assay with DLD-1 colon, over 100 µM; with SN12K1 renal it was over 67.4 µM. The TGI in the assay with P388 leukemia and with DMS 273 small cell lung was over 100 µM throughout.
